Where a chain is given by its changes, count along the chain named. pIC50, pKi: −log10 of the molar value. Values joined by “and” are separate entries in the source; they are usually repeats but may differ in a detail not shown here. Equal values may be shown once. Read-outs that look alike come from different tables or passages of the source.

Assay [1] has as its target T1, rat steroid 5α-reductase (Rattus norvegicus, UniProt P24008).
T1 sequence (P24008 5-259): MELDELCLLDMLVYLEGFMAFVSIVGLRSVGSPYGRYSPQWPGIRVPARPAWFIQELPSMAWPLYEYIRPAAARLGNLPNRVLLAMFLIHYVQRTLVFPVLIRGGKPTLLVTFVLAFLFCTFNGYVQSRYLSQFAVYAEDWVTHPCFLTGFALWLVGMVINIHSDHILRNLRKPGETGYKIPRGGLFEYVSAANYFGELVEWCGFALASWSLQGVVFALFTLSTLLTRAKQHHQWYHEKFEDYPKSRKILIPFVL
In words: steroid 5α-reductase activity/inhibition in vitro, homogenates of COS cells expressing rat cDNA (Table III). Conditions: rat enzyme; for pKi: two [14C]testosterone concentrations. The source says:
(§1) Expression Vector Construction. A rat steroid 5α-reductase cDNA corresponding to nucleotides 1-1962 (see Example 1) was ligated into the pCMV4 expression vector (Andersson et al., 1989b). A human cDNA corresponding to nucleotides 1 to 842 of FIG. 7 was initially ligated into pCMV4. […] After amplification, the product was ligated into pCMV4.
(§2) Expression of Steroid 5α-Reductase 1 cDNAs in COS Cells. Simian COS-M6 cells were transfected as described by Andersson et al. (1989b). The assay of steroid 5α-reductase activity in intact cells was carried out as described in Example 1 except that [^14 C]-labeled steroid dissolved in ethanol were added to the transfected cell medium and subsequent organic extractions were carried out with dichloromethane. TLC and liquid scintillation counting were performed as described in Example 1.
(§3) To assay steroid 5α-reductase activity in vitro, cells were harvested 48 hours after transfection, washed once with phosphate buffered saline and either frozen in liquid N2 or homogenized directly with a Polytron in 10 mM potassium phosphate (pH 7.4), 150 mM KCl and 1 mM EDTA, at a protein concentration of 2 mg/ml. A typical assay contained 10 to 50 μg of cell homogenate protein in 0.5 ml of 0.1M potassium phosphate buffer (pH 6.6, rat enzyme; pH 7.0, human enzyme). Steroids were added in 5 μl ethanol, and the reaction was initiated by the addition of NADPH to a final concentration of 2-5 mM. Incubations were carried out for 10 min at 37° C. and terminated by the addition of 5 ml dichloromethane. Organic execrations and thin-layer chromatography analysis were as described above.
(§4) The apparent Km and Vmax values in this system were determined in vitro with five different steroid substrates (Table III).
(§5) The apparent Ki values were then determined for 4-aza-steroid (4-MA and MK-906) inhibition of 5α-reductases expressed in COS cells. […] The data obtained were analyzed using Dixon plots to determine the type of inhibition and the apparent Ki value (Dixon et al., 1979).
(§6) COS call transfaction, cell homogonate preparation, and enzyme assay were
(§7) carried out as described in Materials and Methods. Each Km value
(§8) represents the average of at least two experiments carried out on
(§9) different days using cell lysates prepared from different transfections.

Assay [2] concerns the target T2, human steroid 5α-reductase 1 (Homo sapiens, UniProt P18405).
T2 sequence (P18405 1-259): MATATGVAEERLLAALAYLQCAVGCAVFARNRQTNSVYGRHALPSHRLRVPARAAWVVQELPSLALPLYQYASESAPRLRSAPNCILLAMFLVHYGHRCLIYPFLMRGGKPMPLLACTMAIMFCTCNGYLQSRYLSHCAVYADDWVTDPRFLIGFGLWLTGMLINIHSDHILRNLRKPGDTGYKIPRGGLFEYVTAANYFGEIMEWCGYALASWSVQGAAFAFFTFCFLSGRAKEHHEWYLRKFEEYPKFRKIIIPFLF
In words: steroid 5α-reductase activity/inhibition in vitro, homogenates of COS cells expressing human steroid 5α-reductase 1 cDNA (Table III). The settings on record: human enzyme; for pKi: two [14C]testosterone concentrations.
Source text: as §1, §2, §3, §4, §5, §6, §7, §8, §9

In assay [3] the test system is endogenous Xenopus enzyme (presumably a 17β-hydroxysteroid dehydrogenase). Briefly: conversion of steroids by endogenous Xenopus oocyte enzymes (control for nonspecific inhibition). It counts as cell-based, Xenopus laevis. Conditions: 5 μM substrate, 5 μM inhibitor.
Description: Steroid 5α-Reductase Enzyme Assay. Stage 5 and 6 oocytes were surgically removed from female Xenopus laevis (NASCO, Fort Atkinson , Wis.) and collagenase-treated as described by Julius et al., (1988). Oocytes were injected with 50-100 nl of RNA (1 μg/μl) as described by Peacock et al. (Peacock et al., 1988). After injection the oocytes were incubated at 19° C. for 24 hours in modified Barth's saline solution (Peacock et al., 1988) containing 1 mg/ml bovine serum albumin (BSA) to allow expression of the injected RNA. Five to ten viable oocytes were then transferred to 1 ml of modified Barth's saline solution containing 5 μM ^14 C-labeled steroid (50 mCi/mmol, Du Pont-New England Nuclear), and incubated at 37° C. for 2-24 h. […] After the 37° C. incubation, the oocytes were homogenized in the incubation medium and steroid was extracted with 10 ml of dichloromethane. The solvent was evaporated under air and the residue was dissolved in 0.1 ml of chloroform/methanol (2:1, v/v) and subjected to thin-layer chromatography using Siica Gel 60 thin-layer chromatography plates (E. merck, 5748-7, Darmstadt, West Germany). […] The identities of the products were determined by comparison to the Rf values of known standards.
(§15) The oocytes were then incubated with different radiolabeled steroids for an additional 24 hours and the products formed were analyzed by thin-layer chromatography (TLC).
The test system of the next assay is steroid 5α-reductase. Conditions: Liang et al., 1985; cited from earlier work.
Assay [4] deals with T3, cloned rat steroid 5α-reductase (Rattus norvegicus, UniProt P24008).
T3 sequence (P24008 5-259): T1 sequence (P24008 5-259)
Briefly: substrate specificity / inhibition of cloned rat liver steroid 5α-reductase expressed in Xenopus oocytes.
Description: The various steroids and metabolites are identified on the left and right of the autoradiograms: P, progesterone ; 5αP, 5α-dihydroprogesterone; others are as indicated in the legend to FIG. 2. The amount of 5α-reduced metabolites for each substrate is indicated at the bottom of the figure and was determined by liquid scintillation counting after cutting out appropriate zones from the chromatograms.
Steroid 5α-Reductase Enzyme Assay. Stage 5 and 6 oocytes were surgically removed from female Xenopus laevis (NASCO, Fort Atkinson , Wis.) and collagenase-treated as described by Julius et al., (1988). Oocytes were injected with 50-100 nl of RNA (1 μg/μl) as described by Peacock et al. (Peacock et al., 1988). After injection the oocytes were incubated at 19° C. for 24 hours in modified Barth's saline solution (Peacock et al., 1988) containing 1 mg/ml bovine serum albumin (BSA) to allow expression of the injected RNA. Five to ten viable oocytes were then transferred to 1 ml of modified Barth's saline solution containing 5 μM ^14 C-labeled steroid (50 mCi/mmol, Du Pont-New England Nuclear), and incubated at 37° C. for 2-24 h. This temperature-jump protocol is based on the observation that expression of mRNA in Xenopus is maximal a 19° C., whereas rat steroid 5α-reductase expressed in Xenopus has a temperature optima of 37° C. After the 37° C. incubation, the oocytes were homogenized in the incubation medium and steroid was extracted with 10 ml of dichloromethane. The solvent was evaporated under air and the residue was dissolved in 0.1 ml of chloroform/methanol (2:1, v/v) and subjected to thin-layer chromatography using Siica Gel 60 thin-layer chromatography plates (E. merck, 5748-7, Darmstadt, West Germany). The chromatoplates were autoradiographed for 18 hours at -70° C. and the radioactive zones were cut out and subjected to liquid scintillation counting in Complete Counting Cocktail (Research Products International). The identities of the products were determined by comparison to the Rf values of known standards.
as §15

In assay [5] the target is T2, human steroid 5α-reductase 1. In words: steroid 5α-reductase assay in intact transfected COS cells, human type 1 cDNA. It counts as cell-based. Set-up: Human 5α-reductase 1 is 259 residues long; expressed in transfected cells; host or cells: simian COS-M6 cells, pCMV4 vector. Conditions: human steroid 5α-reductase 1 expressed in COS cells; 37° C., 2 hr.
Source text: as §1, §2
(§10) COS cells were transiently transfected with expression vectors harboring the rat or human steroid 5α-reductase 1 cDNAs, or with the pCMV4 vector alone.
(§11) IC50 values for MK-906 and 4-MA inhibition of 5α-reductases expressed in COS cells were also determined. […] See Example 6 and FIG. 15, for further analysis of 4-aza-steroid inhibition.

Assay [6] has as its target T1, rat steroid 5α-reductase. In words: steroid 5α-reductase assay in intact transfected COS cells, rat cDNA. In kind it is cell-based. Set-up: the open reading frame would encode a hydrophobic protein of 255 amino acids; expressed in transfected cells; host or cells: simian COS-M6 cells, pCMV4 vector. The settings on record: rat enzyme expressed in COS cells; 37° C., 2 hr.
Source text: as §1, §2, §10, §11

Assay [7] concerns the target T4, human prostate 5α-reductase (prostate extract) (Homo sapiens, UniProt P31213).
T4 construct: Prostate tissue was obtained from subjects undergoing surgical treatment for benign prostatic hyperplasia; from tissue; host or cells: human prostate (benign prostatic hyperplasia), membrane extract
T4 sequence (P31213 1-254): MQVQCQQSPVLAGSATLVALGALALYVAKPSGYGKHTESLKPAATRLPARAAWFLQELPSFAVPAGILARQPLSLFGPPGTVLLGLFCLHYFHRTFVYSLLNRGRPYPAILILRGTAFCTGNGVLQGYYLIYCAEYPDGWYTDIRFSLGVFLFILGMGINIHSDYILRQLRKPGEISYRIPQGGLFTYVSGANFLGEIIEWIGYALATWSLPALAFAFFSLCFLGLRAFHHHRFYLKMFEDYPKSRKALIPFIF
Briefly: finasteride inhibition of 5α-reductase in human prostate extract. In kind it is biochemical.

A further assay concerns the target T5, human 5α-reductase 1 (Homo sapiens, UniProt P18405).
T5 construct: Human 5α-reductase 1 is 259 residues long; expressed in transfected cells; host or cells: human embryonic kidney 293 cells
T5 sequence (P18405 1-259): T2 sequence (P18405 1-259)
Briefly: finasteride inhibition of 5α-reductase 1 expressed in human embryonic kidney 293 cells (FIG. 15B). In kind it is biochemical. As for the experimental part:
(§12) FIGS. 15A-15B. Characterization of expressed human 5α-reductase isozymes with regard to pH optima and finasteride inhibition. Expression plasmids containing the 5α-reductase 1 or 2 cDNAs (FIGS. 7 and 13, respectively) were transfected into human embryonic kidney 293 cells. […] Reductase enzyme activity obtained in extracts of transfected human embryonic kidney 293 cells in the absence of inhibitor was defined as 100%. In both panels, conversion into dihydrotestosterone was determined, after 10 minute incubations, by thin layer chromatography. Protein concentrations in cell extracts were measured as in Lowry, 1951.
(§13) Steroid 5α-Reductase Assay. […] Termination, organic extraction and TLC were performed as described in Example 1, using a chloroform-ethyl acetate (3:1, v/v) mobile phase in the TLC.
(§14) The properties of the two human steroid 5α-reductase isozymes were also compared directly, following expression in human embryonic kidney 293 cells.

Assay [8] has as its target T6, human 5α-reductase 2 (Homo sapiens, UniProt P31213).
T6 construct: predicted to be a hydrophobic polypeptide of 254 amino acids; expressed in transfected cells; host or cells: human embryonic kidney 293 cells, pCMV expression vector
T6 sequence (P31213 1-254 L89V): T4 sequence (P31213 1-254) with L89V
Briefly: finasteride inhibition of 5α-reductase 2 expressed in human embryonic kidney 293 cells (FIG. 15B). In kind it is biochemical. As for the experimental part:
as §12, §13, §14

In assay [9] the target is T7, human 5α-reductase 2 (Homo sapiens, UniProt P31213, L89V).
T7 construct: predicted to be a hydrophobic polypeptide of 254 amino acids; expressed in transfected cells; host or cells: human embryonic kidney 293 cells, pCMV expression vector
T7 sequence (P31213 1-254 L89V): T4 sequence (P31213 1-254) with L89V
The assay is described as above. It counts as biochemical. Conditions: 5α-reductase 2, 293 cells. The protocol:
as §12, §13, §14

In assay [10] the test system is prostate extract and steroid 5α-reductase 1. In words: finasteride inhibition of mixed aliquots of prostate extract and steroid 5α-reductase 1 extract. In kind it is biochemical, human. Conditions: aliquots with equivalent 5α-reductase activity mixed.
Assay [11] concerns major human prostate 5α-reductase enzyme. Conditions: Liang et al., 1985; cited from earlier work.
Assay [12] addresses T2, human steroid 5α-reductase 1. Briefly: finasteride inhibition of steroid 5α-reductase 1 expressed in COS cells (Example 6). In kind it is biochemical. The arrangement: Human 5α-reductase 1 is 259 residues long; expressed in transfected cells; host or cells: simian COS-M6 cells, pCMV4 vector.
Assay [13] concerns the target T1, rat steroid 5α-reductase. Set-up: the open reading frame would encode a hydrophobic protein of 255 amino acids; expressed in transfected cells; host or cells: simian COS-M6 cells, pCMV4 vector. The settings on record: simian COS cells; Andersson & Russell, 1990; cited from earlier work.
Setting [14] is: read-out: apparent Ki, Dixon plots.

Turning to `CCN(CC)C(=O)[C@H]1CC[C@H]2[C@@H]3CC[C@H]4N(C)C(=O)CC[C@]4(C)[C@H]3CC[C@]12C` [4-MA, 17α-N,N-diethylcarbamoyl-4-methyl-4-aza-5α-androtane-3-one], the “apparent Ki (in words)” value (on rat steroid 5α-reductase [1]; in assay [2]) was “low nanomolar range” in each case. The type of inhibition entry at rat steroid 5α-reductase [1] (Dixon plots) is “competitive”; in assay [2] (Dixon plots), “competitive”; in the assay with steroid 5α-reductase, “competitive inhibitors”. For the same compound, the pKi on rat steroid 5α-reductase [1] (setting [14]) is 8.30 and 8.15; in assay [2] (setting [14]) it was 8.15 and 8.10. In addition, the “effect on conversion of dihydrotestosterone into other 5α-reduced metabolites by endogenous Xenopus enzymes” value in [3] is “no effect”. Moreover, the “effect on conversion of testosterone into androstenedione by endogenous Xenopus enzyme” value in [3] is reported as “not inhibited”. Moreover, the “effect on reduction of androstenedione” value in assay [4] (5 μM substrate, 5 μM inhibitor) is reported as “efficiently blocked”. Besides, the “effect on reduction of progesterone” value in assay [4] (5 μM substrate, 5 μM inhibitor) is on record as “efficiently blocked”. Also, the “effect on formation of 5α-reduced products from testosterone” value in [4] (equimolar testosterone and inhibitor (5 μM each)) is given as “substantial decrease”. For the same compound, the “IC50 inhibition, relative potency of 4-MA versus MK-906” value in assay [5] is recorded as “approximately ten-fold more potent than MK-906”. Further, the “IC50 inhibition, relative potency of MK-906 and 4-MA” value on rat steroid 5α-reductase [6] was “equipotent”.
Regarding `CC(C)(C)NC(=O)[C@H]1CC[C@H]2[C@@H]3CC[C@H]4NC(=O)C=C[C@]4(C)[C@H]3CC[C@]12C` [MK-906, 17β-N-t-butylcarbamoyl-4-aza-5α-androst-1-en-3-one], the pKi at rat steroid 5α-reductase [1] (apparent Ki, Dixon plots) was 8.30 to 8.52 and 8.52 and 8.40 and 8.30; in assay [2] (apparent Ki, Dixon plots), 6.21 to 6.47 and 6.47 and 6.42 and 6.21; at human 5α-reductase 1 (5α-reductase 1, 293 cells), roughly 6.64; on human 5α-reductase 2 [9] it was roughly 8.30. For the same compound, the pIC50 in [7] was 8.00; at human 5α-reductase 1, roughly 6.05; on human 5α-reductase 2 [8] it was roughly 7.52; in [12], 5.00. Moreover, in assay [10], the “inhibition curve of mixed extracts” value is given as “biphasic”. Moreover, the figures for the type of inhibition entry (in the assay with steroid 5α-reductase; in assay [11]) were “competitive inhibitors” and “competitive inhibitor”, respectively. Further, on rat steroid 5α-reductase [6], the “IC50 inhibition, relative potency of MK-906 and 4-MA” value is recorded as “equipotent”. In addition, the “inhibition of rat steroid 5α-reductase” value on rat steroid 5α-reductase [13] is given as “inhibited”.
